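These data come from cells grown in 96-well plates and exposed to compound for 48 hours at five concentrations. GI50: concentration for 50% inhibition of growth.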 Active and inactive are the calls of the source. Cut-off read from the data, not from the text of the source: active = GI50 up to about 1.1 µM and inactive = higher.
Experiments:
Experiment in all cases: inhibition of tumour cell growth, NCI panel, 48 h
[1] = system: TK-10
[2] = system: IGROV-1
[3] = system: 786-0
[4] = system: SNB-75
[5] = system: OVCAR-8
[6] = system: RPMI-8226
[7] = system: SF-295
[8] = system: SK-MEL-2
[9] = system: NCI-H23
[10] = system: OVCAR-5
[11] = system: SW-620
[12] = system: MCF7
[13] = system: A549
[14] = system: U-251
[15] = system: SK-OV-3
[16] = system: LOX IMVI
[17] = system: EKVX
[18] = system: HOP-62
[19] = system: Hs-578T
[20] = system: HCT-15
[21] = system: COLO 205
[22] = system: KM12
[23] = system: HCT-116
[24] = system: SF-268
[25] = system: PC-3
[26] = system: OVCAR-3
[27] = system: NCI-H460
[28] = system: A498
[29] = system: DU-145
[30] = system: ACHN
[31] = system: SK-MEL-5
[32] = system: HT-29
[33] = system: UACC-257
[34] = system: K562
[35] = system: NCI-H226
[36] = system: BT-549
[37] = system: M14
[38] = system: UACC-62
[39] = system: NCI/ADR-RES
[40] = system: CAKI-1
[41] = system: MOLT-4
[42] = system: CCRF-CEM
[43] = system: UO-31
[44] = system: MDA-N
[45] = system: SF-539
[46] = system: HOP-92
[47] = system: MDA-MB-435
[48] = system: SR
[49] = system: HL-60
[50] = system: SK-MEL-28
[51] = system: MDA-MB-231
[52] = system: SN12C
[53] = system: SNB-19
[54] = system: T47D
[55] = system: NCI-H522
[56] = system: HCC 2998
[57] = system: RXF 393
[58] = system: OVCAR-4
[59] = system: Malme-3M

With `O=c1[nH]c(=O)n2n1C1C=CC2CC1` the GI50 [1] was > 100 µM (inactive), the GI50 [2] was > 100 µM (inactive) and the GI50 [3] was > 100 µM (inactive). For the same molecule, the GI50 [4] was > 100 µM (inactive), the GI50 [5] was > 100 µM (inactive) and the GI50 [6] was > 100 µM (inactive). The GI50 [7] was > 100 µM (inactive), the GI50 [8] was > 100 µM (inactive) and the GI50 [9] was > 100 µM (inactive). The GI50 [10] was > 100 µM (inactive), the GI50 [11] was > 100 µM (inactive) and the GI50 [12] was > 100 µM (inactive). For the same molecule, the GI50 [13] was > 100 µM (inactive), the GI50 [14] was > 100 µM (inactive) and the GI50 [15] was > 100 µM (inactive). The GI50 [16] was > 100 µM (inactive), the GI50 [17] was > 100 µM (inactive) and the GI50 [18] was > 100 µM (inactive). The GI50 [19] was > 100 µM (inactive), the GI50 [20] was > 100 µM and the GI50 [21] was > 100 µM (inactive). For the same molecule, the GI50 [22] was > 100 µM (inactive), the GI50 [23] was > 100 µM (inactive) and the GI50 [24] was > 100 µM (inactive). For the same molecule, the GI50 [25] was > 100 µM (inactive), the GI50 [26] was > 100 µM (inactive) and the GI50 [27] was > 100 µM (inactive). For the same molecule, the GI50 [28] was > 100 µM (inactive), the GI50 [29] was > 100 µM (inactive) and the GI50 [30] was > 100 µM (inactive). For the same molecule, the GI50 [31] was > 100 µM (inactive), the GI50 [32] was > 100 µM (inactive) and the GI50 [33] was > 100 µM (inactive). For the same molecule, the GI50 [34] was > 100 µM (inactive), the GI50 [35] was > 100 µM (inactive) and the GI50 [36] was > 100 µM (inactive). For the same molecule, the GI50 [37] was > 100 µM (inactive), the GI50 [38] was > 100 µM (inactive) and the GI50 [39] was > 100 µM (inactive). For the same molecule, the GI50 [40] was > 100 µM (inactive), the GI50 [41] was > 100 µM (inactive) and the GI50 [42] was > 100 µM (inactive). The GI50 [43] was > 100 µM (inactive), the GI50 [44] was > 100 µM (inactive) and the GI50 [45] was > 100 µM (inactive). The GI50 [46] was > 100 µM (inactive), the GI50 [47] was > 100 µM (inactive) and the GI50 [48] was > 100 µM (inactive). The GI50 [49] was > 100 µM (inactive), the GI50 [50] was > 100 µM (inactive) and the GI50 [51] was > 100 µM (inactive). For the same molecule, the GI50 [52] was > 100 µM (inactive), the GI50 [53] was > 100 µM (inactive) and the GI50 [54] was > 100 µM (inactive).
For `C=CCCCCCCCCCOC1C=CC(O)C(CO)O1` (stereo not given), the GI50 [1] was 36.7 µM (inactive), the GI50 [2] was 16.6 µM (inactive) and the GI50 [3] was 44.5 µM (inactive). For the same molecule, the GI50 [4] was 51.2 µM (inactive), the GI50 [5] was 17.5 µM (inactive) and the GI50 [6] was 14.9 µM (inactive). The GI50 [7] was 66.2 µM (inactive), the GI50 [8] was 35.7 µM (inactive) and the GI50 [9] was 28.2 µM (inactive). The GI50 [10] was 68.4 µM (inactive), the GI50 [11] was 43.5 µM (inactive) and the GI50 [12] was 41.4 µM (inactive). The GI50 [13] was 42.4 µM (inactive), the GI50 [14] was 28.6 µM (inactive) and the GI50 [15] was 83.6 µM (inactive). For the same molecule, the GI50 [16] was 31.6 µM (inactive), the GI50 [17] was 39.2 µM (inactive) and the GI50 [18] was 50.5 µM (inactive). The GI50 [19] was 46 µM (inactive), the GI50 [20] was 35.1 µM and the GI50 [21] was 37.1 µM (inactive). The GI50 [22] was 27.2 µM (inactive), the GI50 [23] was 46.3 µM (inactive) and the GI50 [24] was 54.8 µM (inactive). The GI50 [25] was 26.5 µM (inactive), the GI50 [26] was 38 µM (inactive) and the GI50 [27] was 25.2 µM (inactive). For the same molecule, the GI50 [28] was 99.5 µM (inactive), the GI50 [29] was 95.3 µM (inactive) and the GI50 [30] was 46.5 µM (inactive). The GI50 [31] was 20.3 µM (inactive), the GI50 [55] was 33.2 µM (inactive) and the GI50 [32] was 22.6 µM (inactive). For the same molecule, the GI50 [33] was 23.7 µM (inactive), the GI50 [34] was 20.6 µM (inactive) and the GI50 [56] was 41.1 µM (inactive). The GI50 [35] was > 100 µM (inactive), the GI50 [36] was 48.4 µM (inactive) and the GI50 [37] was 18.6 µM (inactive). The GI50 [57] was 95.9 µM (inactive), the GI50 [38] was 27.8 µM (inactive) and the GI50 [39] was 43.6 µM (inactive). The GI50 [40] was 56 µM (inactive), the GI50 [41] was 25.5 µM (inactive) and the GI50 [43] was 35.8 µM (inactive). The GI50 [44] was 33.3 µM (inactive), the GI50 [58] was 46.6 µM (inactive) and the GI50 [45] was 95.7 µM (inactive). For the same molecule, the GI50 [46] was 33.5 µM (inactive), the GI50 [47] was 35.5 µM (inactive) and the GI50 [49] was 21.9 µM (inactive). The GI50 [50] was 41.6 µM (inactive), the GI50 [51] was 75.5 µM (inactive) and the GI50 [52] was 49.5 µM (inactive). The GI50 [53] was 54.8 µM (inactive), the GI50 [54] was 52.2 µM (inactive) and the GI50 [59] was 28.1 µM (inactive).
In the case of `O=Cc1c2n(c3ccccc13)N[C@@](Cc1ccc(O)cc1)(C(=O)O)C2`, the GI50 [1] was > 100 µM (inactive), the GI50 [2] was > 100 µM (inactive) and the GI50 [3] was 89.1 µM (inactive). For the same molecule, the GI50 [5] was > 100 µM (inactive), the GI50 [6] was > 100 µM (inactive) and the GI50 [7] was 63.2 µM (inactive). The GI50 [8] was > 100 µM (inactive), the GI50 [9] was > 100 µM (inactive) and the GI50 [10] was > 100 µM (inactive). For the same molecule, the GI50 [11] was 56.8 µM (inactive), the GI50 [12] was 55.5 µM (inactive) and the GI50 [13] was > 100 µM (inactive). The GI50 [14] was > 100 µM (inactive), the GI50 [15] was 77.3 µM (inactive) and the GI50 [16] was 55.2 µM (inactive). The GI50 [17] was > 100 µM (inactive), the GI50 [18] was 46.7 µM (inactive) and the GI50 [19] was > 100 µM (inactive). The GI50 [20] was 47.3 µM, the GI50 [21] was > 100 µM (inactive) and the GI50 [22] was > 100 µM (inactive). For the same molecule, the GI50 [23] was 38.3 µM (inactive), the GI50 [24] was 36 µM (inactive) and the GI50 [25] was 81.7 µM (inactive). The GI50 [26] was 19.5 µM (inactive), the GI50 [28] was > 100 µM (inactive) and the GI50 [29] was > 100 µM (inactive). The GI50 [30] was 62.7 µM (inactive), the GI50 [31] was > 100 µM (inactive) and the GI50 [55] was 25.5 µM (inactive). The GI50 [32] was > 100 µM (inactive), the GI50 [33] was 31 µM (inactive) and the GI50 [34] was 97.3 µM (inactive). For the same molecule, the GI50 [35] was > 100 µM (inactive), the GI50 [36] was > 100 µM (inactive) and the GI50 [37] was 65.6 µM (inactive). The GI50 [38] was > 100 µM (inactive), the GI50 [39] was 35.9 µM (inactive) and the GI50 [40] was > 100 µM (inactive). The GI50 [41] was 60.3 µM (inactive), the GI50 [42] was 34.5 µM (inactive) and the GI50 [43] was > 100 µM (inactive). The GI50 [44] was > 100 µM (inactive), the GI50 [58] was 68.7 µM (inactive) and the GI50 [45] was > 100 µM (inactive). The GI50 [46] was > 100 µM (inactive), the GI50 [47] was > 100 µM (inactive) and the GI50 [48] was 38.1 µM (inactive). The GI50 [49] was 47.1 µM (inactive), the GI50 [50] was > 100 µM (inactive) and the GI50 [51] was > 100 µM (inactive). For the same molecule, the GI50 [53] was > 100 µM (inactive), the GI50 [54] was 82.4 µM (inactive) and the GI50 [59] was 60.3 µM (inactive).
